Experimental data: US10174053B2, “2 substituted cephem compounds” (Glaxo Group Limited, priority 2012, dated 2019)
In brackets after ≈: the same amount, converted by molar mass.

Assays:
Experiment in all cases: In vitro antimicrobial activity, MIC by broth microdilution (CLSI)
Assay type in all cases: cell-based
K. pneumoniae SR01358 = settings: Klebsiella pneumoniae, SR01358; KPC-2, ESBL and KPC-type carbapenemase producing strain; 5×10^5 cfu/mL; cation-adjusted Iso-Sensitest broth containing human Apo-transferrin; read-out: Minimum Inhibitory Concentration (MIC) K. pneumoniae SR01358
Procedure: (§1) Compound (I) of the invention was evaluated for in vitro antimicrobial activity thereof.
(§2) Measurement of Minimum Inhibitory Concentration (MIC: μg/mL) was conducted according to CLSI (Clinical and Laboratory Standards Institute) method, and the amount of bacteria for inoculation was 5×10^5 cfu/mL, and cation-adjusted Iso-Sensitest broth containing human Apo-transferrin was used as a test medium, and the experiment was conducted using broth microdilution method. The bacteria used are listed below.

A. baumannii JMI2346 = settings: Acinetobacter baumannii, JMI2346; OXA-51, TEM, ESBL and OXA-type carbapenemase producing strain; 5×10^5 cfu/mL; cation-adjusted Iso-Sensitest broth containing human Apo-transferrin; read-out: Minimum Inhibitory Concentration (MIC) A. baumannii JMI:2346
Procedure: as §1, §2

E. Coli JMI1890 = settings: Escherichia coli; PER-1, TEM-1, ESBL producing strain; 5×10^5 cfu/mL; cation-adjusted Iso-Sensitest broth containing human Apo-transferrin; read-out: Minimum Inhibitory Concentration (MIC) E. Coli JMI:1890
Procedure: as §1, §2

A. baumannii JMI7 = settings: Acinetobacter baumannii, JMI7; PER-1, OXA-23, 51, ESBL and OXA-type carbapenemase producing strain; 5×10^5 cfu/mL; cation-adjusted Iso-Sensitest broth containing human Apo-transferrin; read-out: Minimum Inhibitory Concentration (MIC) A. baumannii JMI:7
Procedure: as §1, §2

SMILES	MIC (K. pneumoniae SR01358) [µg/mL]	MIC (A. baumannii JMI2346) [µg/mL]	MIC (E. Coli JMI1890) [µg/mL]	MIC (A. baumannii JMI7) [µg/mL]
C[C@@H]1S[C@@H]2[C@H](NC(=O)/C(=N\OC(C)(C)C(=O)[O-])c3csc(N)n3)C(=O)N2C(C(=O)[O-])=C1C[N+]12CCC(CNC(=O)C(=O)c3cc(O)c(O)c(Cl)c3)(CC1)CC2.[Na+] [Compound I-14]	≤ 0.031	8	1	2
C[C@@H]1S[C@@H]2[C@H](NC(=O)/C(=N\OC(C)(C)C(=O)[O-])c3csc(N)n3)C(=O)N2C(C(=O)[O-])=C1C[N+]12CCC(CNC(=O)c3cc(O)c(O)c(F)c3)(CC1)CC2.[Na+] [Compound I-72]	≤ 0.031	4	0.125	1
C[C@@H]1S[C@@H]2[C@H](NC(=O)/C(=N\OC(C)(C)C(=O)[O-])c3csc(N)n3)C(=O)N2C(C(=O)[O-])=C1C[N+]12CCC(CNC(=O)C(=O)c3ccc(O)c(O)c3)(CC1)CC2.[Na+] [Compound I-107]	≤ 0.031	4	0.5	2
C[C@@H]1S[C@@H]2[C@H](NC(=O)/C(=N\OC(C)(C)C(=O)O)c3csc(N)n3)C(=O)N2C(C(=O)[O-])=C1C[N+]12CCC(Cn3cnc4cc(O)c(O)cc4c3=O)(CC1)CC2 [Compound I-150, (4S,6R,7R)-7-((Z)-2-(2-aminothiazol-4-yl)-2-(((2-carboxypropan-2-yl)oxy)imino)acetamido)-3-((4-((6,7-dihydroxy-4-oxoquinazolin-3(4H)-yl)methyl)quinuclidin-1-ium-1-yl)methyl)-4-methyl-8-oxo-5-thia-1-azabicyclo[4.2.0]oct-2-ene-2-carboxylate]	≤ 0.031	2 (≈ 2.55 µM)	2 (≈ 2.55 µM)	0.5 (≈ 0.639 µM)
C[C@@H]1S[C@@H]2[C@H](NC(=O)/C(=N\OC(C)(C)C(=O)[O-])c3csc(N)n3)C(=O)N2C(C(=O)[O-])=C1C[N+]12CCC(CNC(=O)C(=O)c3ccc(O)c(O)c3Cl)(CC1)CC2.[Na+] [Compound I-3]	≤ 0.031	2	0.5	0.5
C[C@@H]1S[C@@H]2[C@H](NC(=O)/C(=N\OC(C)(C)C(=O)[O-])c3csc(N)n3)C(=O)N2C(C(=O)[O-])=C1C[N+]12CCC(CN3C(=O)c4cc(O)c(O)cc4C3=O)(CC1)CC2.[Na+] [Compound I-73]	≤ 0.031	2	0.063	0.25
C[C@@H]1S[C@@H]2[C@H](NC(=O)/C(=N\OC(C)(C)C(=O)O)c3csc(N)n3)C(=O)N2C(C(=O)O)=C1C[N+]12CCC(CNC(=O)/C(=N\OC(C)(C)C(=O)[O-])c3ccc(O)c(O)c3Cl)(CC1)CC2 [Compound I-99]	≤ 0.031	16 (≈ 17.4 µM)	1 (≈ 1.09 µM)	2 (≈ 2.17 µM)
C[C@@H]1S[C@@H]2[C@H](NC(=O)/C(=N\OC(C)(C)C(=O)[O-])c3csc(N)n3)C(=O)N2C(C(=O)O)=C1C[N@+]1(C)[C@@H]2CC[C@H]1C[C@@H](NC(=O)c1cn(C3CC3)c3cc(O)c(O)c(Cl)c3c1=O)C2 [Compound I-120]	≤ 0.031	2 (≈ 2.22 µM)	0.063 (≈ 0.07 µM)	0.5 (≈ 0.556 µM)
CO/N=C(\C(=O)NCC12CC[N+](CC3=C(C(=O)O)N4C(=O)[C@@H](NC(=O)/C(=N\OC(C)(C)C(=O)[O-])c5csc(N)n5)[C@H]4S[C@H]3C)(CC1)CC2)c1ccc(O)c(O)c1Cl [Compound I-96]	≤ 0.031	8 (≈ 9.42 µM)	0.125 (≈ 0.147 µM)	1 (≈ 1.18 µM)
C[C@@H]1S[C@@H]2[C@H](NC(=O)/C(=N\OC(C)(C)C(=O)[O-])c3csc(N)n3)C(=O)N2C(C(=O)[O-])=C1C[N+]12CCC(CNC(=O)c3cc(=O)c(O)c[nH]3)(CC1)CC2.[Na+] [Compound I-140]	≤ 0.031	–	0.5	4
C[C@@H]1S[C@@H]2[C@H](NC(=O)/C(=N\O[C@@H](CC(=O)[O-])C(=O)[O-])c3csc(N)n3)C(=O)N2C(C(=O)[O-])=C1C[N+]12CCC(CNC(=O)C(=O)c3cc(O)c(O)c(Cl)c3)(CC1)CC2.[Na+].[Na+] [Compound I-15]	–	16	1	4

The next lines start with the values.

MIC (K. pneumoniae SR01358) [µg/mL]	MIC (A. baumannii JMI2346) [µg/mL]	MIC (E. Coli JMI1890) [µg/mL]	MIC (A. baumannii JMI7) [µg/mL]	SMILES
≤ 0.031	4	0.125	2	C[C@@H]1S[C@@H]2[C@H](NC(=O)/C(=N\OC(C)(C)C(=O)[O-])c3csc(N)n3)C(=O)N2C(C(=O)[O-])=C1C[N+]12CCC[C@H]1CN(C(=O)c1cc(O)c(O)c(Cl)c1)CC2.[Na+] (some centres unmarked) [Compound I-64]
0.125 (≈ 0.165 µM)	8 (≈ 10.6 µM)	0.5 (≈ 0.66 µM)	2 (≈ 2.64 µM)	C[C@@H]1S[C@@H]2[C@H](NC(=O)/C(=N\OC(C)(C)C(=O)[O-])c3csc(N)n3)C(=O)N2C(C(=O)O)=C1C[N+]1(CCN2C(=O)c3ccc(O)c(O)c3C2=O)CCCC1 [Compound I-51]
≤ 0.031	2 (≈ 2.44 µM)	0.125 (≈ 0.152 µM)	0.5 (≈ 0.609 µM)	C[C@@H]1S[C@@H]2[C@H](NC(=O)/C(=N\OC(C)(C)C(=O)[O-])c3csc(N)n3)C(=O)N2C(C(=O)O)=C1C[N+]12CCC(CNC(=O)/C(=N\O)c3ccc(O)c(O)c3Cl)(CC1)C2 [Compound I-102]
≤ 0.031	8	0.5	1	C[C@@H]1S[C@@H]2[C@H](NC(=O)/C(=N\OC(C)(C)C(=O)[O-])c3csc(N)n3)C(=O)N2C(C(=O)[O-])=C1C[N+]12CCC(CC1)N(C(=O)C(=O)c1cc(O)c(O)c(Cl)c1)CC2.[Na+] [Compound I-16]
0.125 (≈ 0.163 µM)	4 (≈ 5.21 µM)	0.5 (≈ 0.651 µM)	1 (≈ 1.3 µM)	CC[N+](CC)(CCNC(=O)c1ccc(O)c(O)c1Cl)CC1=C(C(=O)O)N2C(=O)[C@@H](NC(=O)/C(=N\OC(C)(C)C(=O)[O-])c3csc(N)n3)[C@H]2S[C@H]1C [Compound I-37]
≤ 0.031	–	8 (≈ 10.9 µM)	–	C[C@@H]1S[C@@H]2[C@H](NC(=O)/C(=N\OC(C)(C)C(=O)[O-])c3csc(N)n3)C(=O)N2C(C(=O)O)=C1C[N+]1(CCNC(=O)c2cc(=O)c(O)c[nH]2)CCCC1 [Compound I-130]
≤ 0.031	–	1	1	C[C@@H]1S[C@@H]2[C@H](NC(=O)/C(=N\OC(C)(C)C(=O)[O-])c3csc(N)n3)C(=O)N2C(C(=O)[O-])=C1C[N+]1(C)C[C@H]2CN(C(=O)c3cc(O)c(O)c(Cl)c3)C[C@H]2C1.[Na+] (some centres unmarked) [Compound I-63]
0.125 (≈ 0.165 µM)	4 (≈ 5.26 µM)	0.5 (≈ 0.658 µM)	0.5 (≈ 0.658 µM)	CC[N+](CC)(CCN1C(=O)c2ccc(O)c(O)c2C1=O)CC1=C(C(=O)O)N2C(=O)[C@@H](NC(=O)/C(=N\OC(C)(C)C(=O)[O-])c3csc(N)n3)[C@H]2S[C@H]1C [Compound I-36]
0.063 (≈ 0.0809 µM)	1 (≈ 1.28 µM)	0.125 (≈ 0.161 µM)	0.5 (≈ 0.642 µM)	C[C@@H]1S[C@@H]2[C@H](NC(=O)/C(=N\OC(C)(C)C(=O)[O-])c3csc(N)n3)C(=O)N2C(C(=O)O)=C1C[N+]12CCC(CNC(=O)c3ccc(O)c(O)c3Cl)(CC1)C2 [Compound I-100]
≤ 0.031	4	0.25	0.5	C[C@@H]1S[C@@H]2[C@H](NC(=O)/C(=N\OC(C)(C)C(=O)[O-])c3csc(N)n3)C(=O)N2C(C(=O)[O-])=C1C[N+]12CCC[C@H]1CN(C(=O)C(=O)c1ccc(O)c(O)c1Cl)CC2.[Na+] (some centres unmarked) [Compound I-76]
≤ 0.031	8	1	1	C[C@@H]1S[C@@H]2[C@H](NC(=O)/C(=N\OC(C)(C)C(=O)[O-])c3csc(N)n3)C(=O)N2C(C(=O)[O-])=C1C[N@+]12CCC[C@H]1CN(C(=O)C(=O)c1cc(O)c(O)c(Cl)c1)CC2.[Na+] [Compound I-10]
0.063	16	2	2	C[C@@H]1S[C@@H]2[C@H](NC(=O)/C(=N\O[C@@H](CC(=O)[O-])C(=O)[O-])c3csc(N)n3)C(=O)N2C(C(=O)[O-])=C1C[N@+]12CCC[C@H]1CN(C(=O)C(=O)c1cc(O)c(O)c(Cl)c1)CC2.[Na+].[Na+] [Compound I-11]
0.063	8	0.5	1	C[C@@H]1S[C@@H]2[C@H](NC(=O)/C(=N\OC(C)(C)C(=O)[O-])c3csc(N)n3)C(=O)N2C(C(=O)[O-])=C1C[N+]1(CCNC(=O)C(=O)c2ccc(O)c(O)c2)CCCC1.[Na+] [Compound I-109]
≤ 0.031	2	0.063	0.5	C[C@@H]1S[C@@H]2[C@H](NC(=O)/C(=N\OC(C)(C)C(=O)[O-])c3csc(N)n3)C(=O)N2C(C(=O)[O-])=C1C[N+]12CCC(CC1)N(C(=O)c1ccc(O)c(O)c1Cl)CC2.[Na+] [Compound I-62]
≤ 0.031	–	2	1	C[C@@H]1S[C@@H]2[C@H](NC(=O)/C(=N\OC(C)(C)C(=O)[O-])c3csc(N)n3)C(=O)N2C(C(=O)[O-])=C1C[N+]1(CCn2[nH]c(=O)c3cc(O)c(O)cc3c2=O)CCCC1.[Na+] [Compound I-4]
